Assay results published in patent publication US6727059B1, “METHOD FOR CONTROLLING THE FIDELITY AND PROCESSIVITY OF REVERSE TRANSCRIPTASE BY INCORPORATION AND POLYMERIZATION OF NUCLEOTIDE ANALOGS ACCEPTED AS SUBSTRATES FOR THE REVERSE TRANSCRIPTION REACTION WITHOUT BLOCKING ITS ELONGATION” (priority 2002, dated 2004).

Key:
Format in all cases: biochemical
[1] = molecular target: T1, HIV-1 reverse transcriptase (Human immunodeficiency virus type 1 group M subtype B, UniProt P04585); assay: Identification of termination sites of polymerization with base analogs, HIV-1 reverse transcriptase; conditions: pbs primer; for number of new termination sites appearing / termination rate with the analog compared to the normal dNTP, overall: analog replaces its normal dNTP; for termination rate with the analog compared to the normal dNTP, overall: each dNTP 500 μM, 30 min 37° C.
Text: The termination sites and the termination rates at each site were studied in the presence of 4 natural dNTPs present in excess, or in the presence of three of these natural dNTPs, the fourth being replaced with an analog: dUTP as a replacement for dTTP, dITP and c7dGTP as a replacement for dGTP and, finally, c7dATP in place of dATP (FIGS. 1.2 and 1.3). These analogs affect the formation of the hydrogen bonds in the two grooves of the double helix.
(§1) The termination sites were identified during polymerization catalyzed by the HIV-1 reverse transcriptase and the Klenow fragment by changing one of the dNTPs for its base analog. dTTP was replaced with dUTP, dGTP was replaced with dITP or c7dGTP and dATP was replaced with c7dATP. In this study, the synthesis is primed with pbs.
(§2) The reaction begins by formation of the reaction complex between the matrix/primer labeled at the 5′ end (0.05 pmol) with the enzyme (0.01 U/μl) by incubation at 37° C. for 3 min for the 3 RTs and at 25° C. for the Klenow fragment. A solution containing the 3 dNTPs and one of the analogs, each at the final concentration of 500 μM, and trapping DNA (100:1:trapping DNA:matrix/cold primer) is then added. The use of trapping DNA makes it possible to prevent the reinitialization of the polymerization at the termination sites. In parallel, a control in the presence of the 4 “normal” dNTPs was carried out under reaction conditions identical to the reaction in the presence of analogs. The mixture is incubated for 30 min at 37° C. for the HIV-1 reverse transcriptase and at 25° C. for the Klenow fragment. The reaction is stopped by adding ⅓ volume of stop solution (v/v), and then the reaction products are loaded onto a denaturing 8 M urea 13% acrylamide gel. Position of the termination sites is identified by the co-migration of the sequencing products (Sanger method).
(§3) Each reaction was carried out 3 times; variations in the strength of the termination rates are observed, but they are small and less than 10%. For the HIV-1 reverse transcriptase and the Klenow fragment, the synthesis termination rates with the various analogs (black rods) as a function of the sequence are given in the presence of the termination rates obtained in the control reaction, i.e. in the presence of the “normal” bases (white rods).

[2] = molecular target: T2, Klenow fragment of E.coli DNA-dependent DNA polymerase (Escherichia coli, UniProt P00582); assay: Identification of termination sites of polymerization with base analogs, Klenow fragment; conditions: pbs primer; for termination rate with the analog compared to the normal dNTP: analog replaces its normal dNTP, each dNTP 500 μM, 30 min 25° C., positions +20 to +55
T2 construct: the Klenow fragment of E.coli DNA-dependent DNA polymerase (KF)
T2 sequence (P00582 324-928): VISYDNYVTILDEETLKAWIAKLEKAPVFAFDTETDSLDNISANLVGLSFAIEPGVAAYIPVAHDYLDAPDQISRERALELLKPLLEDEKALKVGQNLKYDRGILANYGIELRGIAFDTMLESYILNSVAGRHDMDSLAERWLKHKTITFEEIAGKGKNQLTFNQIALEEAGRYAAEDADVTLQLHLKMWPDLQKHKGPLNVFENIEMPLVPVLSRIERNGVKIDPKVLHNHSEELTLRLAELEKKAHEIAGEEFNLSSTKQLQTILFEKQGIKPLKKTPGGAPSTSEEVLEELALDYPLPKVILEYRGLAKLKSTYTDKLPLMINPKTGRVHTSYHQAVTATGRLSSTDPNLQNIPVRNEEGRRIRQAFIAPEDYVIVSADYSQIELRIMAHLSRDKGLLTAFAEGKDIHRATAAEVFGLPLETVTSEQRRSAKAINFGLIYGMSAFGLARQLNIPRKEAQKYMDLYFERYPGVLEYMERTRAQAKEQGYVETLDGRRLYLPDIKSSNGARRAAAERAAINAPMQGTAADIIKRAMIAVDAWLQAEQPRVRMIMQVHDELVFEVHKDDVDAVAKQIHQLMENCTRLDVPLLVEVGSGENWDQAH
Text: These matrices were used for parallel studies of HIV-1 reverse transcriptase and of the Klenow fragment of E.coli DNA-dependent DNA polymerase (KF). There have been many studies relating to the fidelity and processivity of the Klenow fragment (Abbotts and Wilson, 1988; Lecomte and Ninio, 1987, 1988; Papanicolaou and Ripley, 1989 and 1991).
as §1, §2, §3
Overall, the presence of the base analogs reduces the efficiency of the Klenow fragment polymerization, making it difficult to detect termination sites beyond the position +55, and for this reason, we have represented, in the various figures which follow, only the termination sites located between position +20 and +55.

[3] = molecular target: T1, HIV-1 reverse transcriptase; assay: Kinetics of misincorporation (error rate) in the minus A reaction with base analogs; conditions: absence of dATP; for error rate at the first misincorporation site opposite T-135, start of the kinetics: starting value
Text: In order to understand the role of the three dNTPs present involved in the misincorporation subsequent to the absence of the fourth dNTP, dGTP and/or dCTP were replaced with dITP and dUTP, respectively, in the reaction minus A. dITP was chosen because I can pair with T and therefore compensate for the absence of A, and dUTP was chosen in order to assess the affect that the absence of the methyl of a T may have on the fidelity of incorporation of the neighboring pair. For this reason, we are interested not only in the sites and rates of misincorporations, but in the kinetics with which these misincorporations take place. The conditions most suited to the lack of fidelity of the HIV-RT were selected: use of the matrix+env (ppt primer) and absence of dATP (data not shown).
After hybridization of the ppt primer labeled at the 5′ end (1 pmol), with the matrix+env (2 pmol), the HIV-1 reverse transcriptase is added at the final concentration of 0.1 U/μl. Solutions containing dCTP, dGTP, dTTP (control), dCTP, dITP, dTTP or dCTP, dGTP, dUTP or dCTP, dITP, dUTP, each at the final concentration of 500 μM, were added to equivalent (¼ of the mixture) fractions. […] After denaturation at 92° C. for 5 min, the reaction products are loaded onto an 8M urea denaturing 13% acrylamide gel.
FIG. 4.4 represents the variation in the misincorporation rate in front of T-135 (matrix), the first misincorporation site, as a function of time and of the base analog used.

[4] = molecular target: T1, HIV-1 reverse transcriptase; assay: Analysis of mismatches: restriction test and sequencing of mutated plasmids from the minus A reaction; conditions: for fidelity of the HIV-1 reverse transcriptase / profile of mutations: analog instead of normal dNTP
Description: Matrix/labeled primer (0.5 pmol), reverse transcriptase (0.04 U/μl) and the 3 dNTPs (500 μM final) were incubated for 30 min at 37° C., and then the dATP (500 μM final) was added and the incubation continued for 30 min at 37° C. The reaction is then stopped by adding EDTA at the concentration of 10 mM final. The reaction products are recovered after alcohol precipitation and digested with the Sac I enzyme. After denaturation at 90° C. for 3 min, the product is loaded onto a denaturing 10% acrylamide gel. After migration and auto-radiography, the 200-base bands are recovered on the gel and then purified. These fragments are amplified by PCR (15 cycles), cleaved with Mlu I and Bam H I and inserted into pBluescript SK+ppt by ligation with T4 DNA ligase, followed by transformation with XL-1 Blue.
The mutated plasmids are easily selected since they no longer have the restriction site recognized by the Nco I enzyme (see FIG. 4.5). In addition, the absence of enzymatic digestion with Sph I implies a double mutation.
The polymerization reaction was carried out in the absence of dATP, as for the reaction in the presence of the “natural” bases, but the dGTP was replaced with dITP or the dTTP was replaced by dUTP. After 30 min at 37° C. in the presence of the HIV-1 reverse transcriptase and of 3 of the 4 bases, the matrix/labeled primer is purified on a Sephadex G50 column, so as to eliminate the nucleotides which have not been incorporated, and in particular the dITP and dUTP which would modify the Sac I restriction site. The elongation is then continued for 30 min at 37° C. in the presence of the 4 natural dNTPs, at the final concentration of 500 μM, and of the enzyme (0.05 U/μl). After alcohol precipitation, digestion with the Sac I restriction enzyme and recovery of the 200-base band, a PCR is carried out under the same conditions as for the reaction in the presence of the “natural” bases. […]

[5] = matrix +env, ppt primer, dNTPs 500 μM each
[6] = 7 plasmids sequenced, minus A, dITP instead of dGTP
[7] = of 36 plasmids isolated, minus A, Nco I and Sph I digestion test
[8] = sequenced plasmids, absence of dATP and dGTP

Compound: O=c1[nH]cnc2c1ncn2[C@H]1C[C@H](O)[C@@H](COP(=O)(O)OP(=O)(O)OP(=O)(O)O)O1 [dITP]
- number of new termination sites appearing ([1]; 500 μM): Two
- termination rate with the analog compared to the normal dNTP, overall [1]: higher
- factor of increase in the termination rates of 10 sites ([1]; dITP instead of dGTP, 500 μM): ~4
- termination strength at the exit of the series of 6As, on average ([1]; dITP instead of dGTP, 500 μM): doubled
- termination rate with the analog compared to the normal dNTP [2]: increases in the termination rates of the sites located before the incorporation of a dITP
- decrease of the error rate observed with dGTP at the first misinsertion site ([3]; dITP instead of dGTP, after 45 min of incubation): ~50%
- error rate at the first misincorporation site opposite T-135 after 10 min [3, 5]: 40%
- error rate at the first misincorporation site opposite T-135, start of the kinetics [3, 5]: 0%
- deletion or insertion in the plasmids sequenced ([4]; 7 plasmids sequenced, minus A): No deletion or insertion is detected
- times C is incorporated at the 1st site of misincorporation (T-135 matrix) [4, 6]: 4 times
- times the I base is incorporated at the 1st site of misincorporation (T-135 matrix) [4, 6]: 3 times
- order of substitution at the T sites of the matrix ([4]; absence of dATP): C>>I>>T
- fidelity of the HIV-1 reverse transcriptase / profile of mutations ([4]; absence of dATP): increased
- mutation rate ([4]; in vitro, absence of dATP, dITP instead of dGTP): decreases the mutation rate
- plasmids mutated at least on the first site at which A is requested [4, 7]: 4 plasmids
- plasmids mutated on at least the first three sites [4, 7]: 3 plasmids
- plasmids mutated on the first two sites [4, 7]: one
- number of T:I pairings [4, 8]: three
- number of T:T pairings [4, 8]: one
- number of T:C mismatches, all mismatches whatever their position ([4]; sequenced plasmids, minus A): eight

Compound: O=c1ccn([C@H]2C[C@H](O)[C@@H](COP(=O)(O)OP(=O)(O)OP(=O)(O)O)O2)c(=O)[nH]1 [dUTP]
- termination rate with the analog compared to the normal dNTP, overall [1]: lower than with dTTP
- decrease of the termination rate of most of the sites located before and after the incorporation of the analog (maximum) ([1]; dUTP instead of dTTP, 500 μM): ≤ 5%
- number of sites with a decrease of more than half of their termination rate ([1]; dUTP instead of dTTP, 500 μM): Seven
- termination rate with the analog compared to the normal dNTP [2]: significantly increases the termination rate of most of the sites which precede the incorporation of the dUMP
- error rate at the first misincorporation site opposite T-135 after 10 min [3, 5]: 65%
- error rate at the first misincorporation site opposite T-135 after 45 min ([3]; matrix +env, ppt primer, dNTPs 500 μM each, 45 min): ~77%
- error rate at the first misincorporation site opposite T-135, start of the kinetics [3, 5]: 5%
- T:U mismatch ([4]; 6 plasmids sequenced, minus A, dUTP instead of dTTP): No base U is incorporated
- fidelity of the HIV-1 reverse transcriptase / profile of mutations ([4]; absence of dATP): only slightly modifies the profile and the specificity of the mutations
- plasmids without any mutations on the Sph I and Nco I sites ([4]; of 36 plasmids, minus A): 15 plasmids
- plasmids with at least two mutations ([4]; of 36 plasmids, minus A, Sph I and Nco I digestion): 21 plasmids
- number of T:C mismatches, all mismatches whatever their position ([4]; sequenced plasmids, minus A): 6
- number of T:G mismatches, all mismatches whatever their position ([4]; sequenced plasmids, minus A): 17

Compound: Nc1nc2c(ccn2C2CC(O)C(COP(=O)(O)OP(=O)(O)OP(=O)(O)O)O2)c(=O)[nH]1 (centres unmarked) [c7dGTP]
- number of new termination sites appearing ([1]; 500 μM): 4 sites
- termination rate with the analog compared to the normal dNTP, overall [1]: considerable increase at the start of elongation, and then a clear tendency toward decreasing the termination rate
- decrease of the termination rate at other sites ([1]; c7dGTP instead of dGTP, 500 μM): up to 10 fold
- decrease of the termination rate opposite C21 ([1]; c7dGTP instead of dGTP, 500 μM): 10%
- decrease of the termination rate opposite C49 ([1]; c7dGTP instead of dGTP, 500 μM): 90%
- increase of the termination rate at 6 of the 18 termination sites ([1]; c7dGTP instead of dGTP, 500 μM): up to 3.5 fold
- termination rate with the analog compared to the normal dNTP [2]: All the stops on the sites at which the c7dGMP is incorporated into the polymerized strand are increased
- decrease of the termination rate at C32 ([2]; c7dGTP instead of dGTP, 500 μM): 26%

Compound: Nc1ncnc2c1ccn2[C@H]1C[C@H](O)[C@@H](COP(=O)(O)OP(=O)(O)OP(=O)(O)O)O1 [c7dATP]
- number of new termination sites appearing ([1]; 500 μM): 3 sites
- termination rate with the analog compared to the normal dNTP, overall [1]: little effect overall
- decrease of the termination rate on A75 ([1]; c7dATP instead of dATP, 500 μM): ~2 fold
- increase of termination strength opposite A41 ([1]; c7dATP instead of dATP, 500 μM): 7 ×
- increase of termination strength opposite T76 ([1]; c7dATP instead of dATP, 500 μM): 2 ×
- increase of the termination rate at A41 ([1]; c7dATP instead of dATP, 500 μM): ~7 fold
- part of the elongation complexes stopped at new site T63 ([1]; c7dATP instead of dATP, 500 μM): half
- termination rate on A35 ([1]; c7dATP instead of dATP, 500 μM): remains stable
- termination rate with the analog compared to the normal dNTP [2]: increase in the termination rates in 3 waves
